Data on 21 compounds can be found in US20220227758A1, “IMIDAZOPYRIDINE COMPOUND AS IRAK4 INHIBITOR” (MEDSHINE DISCOVERY INC., priority 2019, published 2022).

The structures appear in SMILES notation.

In one series the target is T1, human IRAK4 (Homo sapiens, UniProt Q9NWZ3).
T1 construct: purchased Reaction Biology Corp
T1 sequence (Q9NWZ3 1-460): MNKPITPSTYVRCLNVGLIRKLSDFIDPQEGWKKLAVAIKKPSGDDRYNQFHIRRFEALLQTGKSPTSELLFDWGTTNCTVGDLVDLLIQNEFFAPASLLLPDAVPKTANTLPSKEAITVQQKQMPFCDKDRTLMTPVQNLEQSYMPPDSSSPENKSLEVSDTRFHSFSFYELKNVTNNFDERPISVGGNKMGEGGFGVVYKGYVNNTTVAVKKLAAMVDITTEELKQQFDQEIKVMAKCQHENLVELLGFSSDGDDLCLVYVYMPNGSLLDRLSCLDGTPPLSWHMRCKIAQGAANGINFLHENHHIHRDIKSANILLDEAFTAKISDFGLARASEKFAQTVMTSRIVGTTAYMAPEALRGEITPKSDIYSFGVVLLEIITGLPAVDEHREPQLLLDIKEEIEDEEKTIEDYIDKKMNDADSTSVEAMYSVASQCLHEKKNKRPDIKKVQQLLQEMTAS
Put plainly: 33P-labeled kinase activity assay (in vitro enzymatic activity evaluation). In kind it is biochemical. How it is done:
The inhibitory activity of the test compounds against human IRAK4 was evaluated by determining IC50 values in a ^33P-labeled kinase activity assay (Reaction Biology Corp).
Buffer conditions: 20 mM Hepes (pH 7.5), 10 mM MgCl2, 1 mM EGTA, 0.02% Brij35, 0.02 mg/mL BSA, 0.1 mM Na3VO4, 2 mM DTT, 1% DMSO.
Procedures: The test compound was dissolved in DMSO at room temperature to prepare a 10 mM solution for later use. The substrates were dissolved in freshly formulated buffers. The kinase was added, and mixture was stirred homogeneously. The DMSO solution containing the test compound was added to the above mixed reaction system by an acoustic technique (Echo 550). After 15 minutes of incubation, the reaction was started by adding ^33P-ATP. After 120 minutes of reaction at room temperature, the resulting solution was loaded on P81 ion exchange chromatography paper sheet (Whatman #3698-915). After repeated washings with 0.75% phosphoric acid solution, the radioactivity of the phosphorylated substrate residue on the paper sheet was measured. The kinase activity data are shown as a comparison of the kinase activity of the test compound and the kinase activity of the blank (DMSO only) and a curve was fitted using Prism4 software (GraphPad) to give IC50 values, with the experimental results shown in Table 5.

The subject of the next series is THP-1 cells. Put plainly: cells. The conditions noted are these: Homo sapiens, THP-1, 18 h, read-out: THP-1/IC50. How it is done: TNF-α ELISA in THP-1 cells
THP-1 human acute […] leukemia cells were purchased from ATCC (Cat # TIB-202) and incubated in a5% CO2 incubator at 37° C. The medium was RPMI1640 (Gibco, Cat # 22400-105), the supplementary was 10% FBS (Gibco, Cat # 10091148); 1% PenStrep (Gibco, Cat # 15140); 0.05 mM 2-mercaptoethanol (Sigma, Cat # M6250).
TNF-α content in the cell culture supernatant was measured by a TNF-α Elisa kit. TNF-α was produced by stimulation of THP-1 cells with 150 ng/mL LPS (Sigma, Cat # L6529). Normal THP-1 cells in logarithmic phase were seeded in 96-well plates (Corning #3599) at a certain concentration (1×10^5/100 μL) and then incubated in an incubator. After two hours, 16.7 μL of test compound of different concentrations (8×final concentration) was added and the mixture was incubated in the incubator. After one hour, 16.7 μL of 1200 ng/mL LPS was added and the mixture was incubated in the incubator. After 18 h, the culture was centrifuged and the probe of the supernatant was collected. The TNF-α content was measured by a TNF-α Elisa kit. Finally, the OD signals (OD450-OD570) were read on an envision plate reader.
The OD450-OD570 signals were converted to percent inhibition.
Inhibition%=(ZPE−sample)/(ZPE−HPE)×100.
“HPE” represents the OD450-OD570 signal value of the control well without LPS-stimulated cells, and “ZPE” represents the OD450-OD570 signal value of the control well with LPS-stimulated cells.
IC50 values for compounds were calculated by XLFit in the Excel.
Equation:y=Bottom+(Top-Bottom)/(1+(IC50/X)^ HillSlope).

For series [1], the system named is lipopolysaccharide (LPS)-induced TNF-α secretion. Put plainly: Pharmacodynamic study of LPS-induced TNF-α secretion in SD rats. In kind it is in vivo. The conditions noted are these: oral. How it is done: SD rats were orally administered with a solvent, dexamethasone (DEX, 0.5 mg/kg) as positive control, and the test compound, and were intraperitoneally injected with LPS (1 mg/kg) 0.5 hours after the administration. Animals were euthanized with CO2 2 h after LPS injection. Cardiac blood was collected into EDTA-K2 vacutainers, and a part of the anticoagulated blood was centrifuged and the plasma was frozen at −80° C.
Frozen plasma was thawed at room temperature and the concentration of TNF-α in the plasma was measured using ELISA kit.
The experimental data were expressed using mean±SEM, and TNF-α levels were analyzed by One-way ANOVA. Significant differences were considered for p<0.05.

In series [2] the test system is collagen-induced arthritis. Put plainly: In vivo efficacy assay of collagen-induced mouse arthritis. More on the design: species or system DBA/1 mice. As to conditions: 100 mg/kg twice daily for 14 days, oral gavage. How it is done:
The purpose of this experiment was to investigate the therapeutic effect of compound WX005 in a mouse model of collagen-induced arthritis.
Animals: male DBA/1 mice aged 6-8 weeks; supplier: Vital River.
Grouping: Among 39 DBA/1 mice, 5 mice were randomly selected as normal controls, and the other 34 were immunized. The day of the first immunization was recorded as Day 0. During modeling, DBA/1 mice were anesthetized with isoflurane and sensitized by injecting 50 microliters of prepared collagen emulsion (containing 200 micrograms of CII) subcutaneously on the tail (2-3 cm from the root of the tail). On Day 23, 100 microliters of 0.3 mg/mL LPS solution (containing 30 micrograms of LPS) was intraperitoneally injected. Mice in the normal group were not immunized.
On Day 26, when the average clinical score reached about 0.8, 24 mice with clinical scores of 0-1 were selected, and the mice were randomly grouped into 3 treatment groups of 8 according to the body weight and the score. […]
Clinical observation: the general health and body weight changes of DBA/1 mice were observed daily from 7 days before immunization to Day 23 after immunization (recorded once weekly). After Day 23, mice were observed daily for health, morbidity, and weight changes (recorded at least three times a week) until the end of assay. […]

Series [3] has as its system human B-cell lymphoma OCI-LY10 cells subcutaneous xenograft tumor. Put plainly: In vivo pharmacodynamic study in OCI-LY10 subcutaneous xenograft tumor mouse model. The conditions noted are these: WX005 50 mpk, ibrutinib 10 mpk; for T/C value / TGI value: day 18 after start of administration, WX005 + ibrutinib 50+10 mpk. How it is done:
The purpose of this experiment was to evaluate the efficacy of test drug WX005 on human B-cell lymphoma OCI-LY10 cell subcutaneous xenograft tumors in a CB17 SCID mouse model in vivo.
OCI-LY10 human B cell lymphoma cells, cultured in a 5% CO2 incubator at 37° C.
OCI-LY10 tumor cells were subcultured. 0.2 mL (1×10^7 cells) of OCI-LY10 cells (along with matrigel in a volume ratio of 1:1) was subcutaneously inoculated on the right back of each […], and the mice were administered in groups when the average tumor volume was 167 mm^3. Animals were monitored daily for health and death, and routine examinations include observation of the effect of tumor growth and drug treatment on the daily performance of the animals, such as behavioral activities, food and water intake, weight changes (twice weekly), tumor size (twice weekly for tumor volume), appearance signs, or other abnormal conditions.
The experimental indices were to investigate whether tumor growth was inhibited or delayed or the tumor was cured. The procedures comprised measuring tumor volume (TV), and calculating the tumor inhibiting therapeutic effect TGI (%) or relative tumor proliferation rate T/C (%) of the compound. TV=0.5a×b^2, where a and b represent the long diameter and short diameter of the tumor, respectively.
T/C%=TRTV/CRTV×100% (TRTV: RTV of treatment group; CRTV: RTV of negative control group). Relative tumor volume (RTV) was calculated based on the results of tumor measurement. The calculation formula was: RTV=Vt/V0, wherein Vo was the average tumor volume measured at the time of grouping and administration (i.e., d0), Vt was the average tumor volume at a certain measurement, and the data of TRTV and CRTV were obtained on the same day.

Compound `CC(C)(O)CCc1cn2cc(NC(=O)c3cccc(C(F)(F)F)n3)c(N3CCOCC3)cc2n1` [WX001] registered an IC50 against human IRAK4 of 2.2 nM.

In turn, `CC(C)(O)CCc1cn2cc(NC(=O)c3cccc(C(F)(F)F)n3)c(N3CCCC(O)C3)cc2n1` (stereo not shown) [WX006] gave an IC50 at human IRAK4 of 3.8 nM.

At human IRAK4, `CC(C)(O)CCc1cn2cc(NC(=O)c3cccc(C(F)(F)F)n3)c(N3CCNCC3)cc2n1` [WX008] returned an IC50 of 1.5 nM.

As for `CC(C)(O)CCc1cn2cc(NC(=O)c3cccc(C(F)(F)F)n3)c(N3CCC(C(N)=O)CC3)cc2n1` [WX016], the IC50 in the series on THP-1 cells was 181 nM; against human IRAK4, 1.2 nM.

The compound `CS(=O)(=O)CCc1cn2cc(NC(=O)c3cccc(C(F)(F)F)n3)c(N3CCC(O)CC3)cc2n1` [WX023] showed an IC50 against human IRAK4 of 1.3 nM.

In turn, `CC1(O)CCN(c2cc3nc(CCS(C)(=O)=O)cn3cc2NC(=O)c2cccc(C(F)(F)F)n2)CC1` [WX025] had an IC50 against human IRAK4 of 0.5 nM.

Consider `CC(C)(O)CCc1cn2cc(NC(=O)c3cccc(C(F)(F)F)n3)c(N3CCC(CO)CC3)cc2n1` [WX007], for which the IC50 at human IRAK4 turned out to be 0.9 nM.

Take `COC(=O)N1CCN(c2cc3nc(CCC(C)(C)O)cn3cc2NC(=O)c2cccc(C(F)(F)F)n2)CC1` [WX010]: at human IRAK4, the IC50 came out at 4.6 nM.

At human IRAK4, `CCOc1cc2nc(CCC(C)(C)O)cn2cc1NC(=O)c1cccc(C(F)(F)F)n1` [WX014] came in with an IC50 of 1.7 nM.

With `CC(C)(O)CCc1cn2cc(NC(=O)c3cccc(C(F)(F)F)n3)c(N3CCCCC3)cc2n1` [WX003], on human IRAK4, the IC50 worked out at 1.2 nM.

As for `O=C(O)CCc1cn2cc(NC(=O)c3cccc(C(F)(F)F)n3)c(N3CCC(CO)CC3)cc2n1` [WX021], the IC50 against human IRAK4 worked out at 7.1 nM.

On human IRAK4, `CC(C)(O)CCc1cn2cc(NC(=O)c3cccc(C(F)(F)F)n3)c(N3CCC(CN)CC3)cc2n1` [WX017] showed an IC50 of 1.3 nM.

Regarding `NC(=O)C1CCN(c2cc3nc(CCC(=O)O)cn3cc2NC(=O)c2cccc(C(F)(F)F)n2)CC1` [WX019], the IC50 at human IRAK4 stood at 19.4 nM.

On to `CC(C)(O)CCc1cn2cc(NC(=O)c3cccc(C(F)(F)F)n3)c(C(C)(C)O)cc2n1` [WX002], for which the IC50 came out at 54 nM in the series with THP-1 cells and 0.4 nM on human IRAK4.

The compound `CC(C)(O)CCc1cn2cc(NC(=O)c3cccc(C(F)(F)F)n3)c(C3CC3)cc2n1` [WX013] came in with an IC50 on human IRAK4 of 3.6 nM.

With `CC(C)(O)CCc1cn2cc(NC(=O)c3cccc(C(F)(F)F)n3)c(N3CCC(O)CC3)cc2n1` [WX005], the “inhibitory effect on LPS-induced TNF-α secretion (plasma TNF-α)” value in series [1] (LPS 1 mg/kg i.p. 0.5 h after administration, plasma 2 h after LPS) is on record as “significant inhibitory effect”. Also, the “potency on LPS-induced TNF-α secretion compared with dexamethasone” value in series [1] (WX005 30 mpk vs dexamethasone (DEX) 0.5 mpk) is listed as “potency equivalent to that of dexamethasone”. The “dose-response of inhibition of LPS-induced TNF-α secretion” value in series [1] (doses 3 mpk, 10 mpk, 30 mpk) is listed as “clear dose-response relationship”. In addition, in series [2], the “body weight of the mice” value is “increased steadily” and the “clinical score of arthritis (efficacy)” value is listed as “excellent efficacy”. Further, the IC50 in the series with THP-1 cells was 114 nM. The same compound registered an IC50 against human IRAK4 of 1.3 nM. Also, the “tolerability (body weight, abnormality) in tumor-bearing mice” value in series [3] (18 days of treatment) is “good tolerability in animals”. For the same compound, in series [3], the T/C value stood at 53% and the TGI value worked out at 66%.

On to `CC(C)(O)CCc1cn2cc(NC(=O)c3cccc(C(F)(F)F)n3)c(N3CCC(C)(O)CC3)cc2n1` [WX015], for which the IC50 in the series with THP-1 cells was found to be 201 nM; at human IRAK4 it was 0.7 nM.

Regarding `C=CC(=O)N1CCC[C@@H](n2nc(-c3ccc(Oc4ccccc4)cc3)c3c(N)ncnc32)C1` [ibrutinib, reference compound], in series [3], the T/C value stood at 39% and the TGI value worked out at 85%.

`CC1(O)CCN(c2cc3nc(CCC(=O)O)cn3cc2NC(=O)c2cccc(C(F)(F)F)n2)CC1` [WX018]: on human IRAK4, the IC50 was determined as 9.8 nM.

As to `NCC1CCN(c2cc3nc(CCC(=O)O)cn3cc2NC(=O)c2cccc(C(F)(F)F)n2)CC1` [WX020], at human IRAK4, the IC50 came out at 20.5 nM.

At human IRAK4, `CC(=O)N1CCN(c2cc3nc(CCC(C)(C)O)cn3cc2NC(=O)c2cccc(C(F)(F)F)n2)CC1` [WX004] had an IC50 of 4.6 nM.
